Consider 25 molecules from US10695334B2, “Heteroaromatic carboxamide derivatives as plasma kallikrein inhibitors” (Boehringer Ingelheim International GmbH, priority 2018, dated 2020).

Where a name gives a salt, the structure may show the parent alone.

By IC50 is commonly meant the midpoint of a concentration-inhibition curve.

Sequence of Human PKK (P03952 391-638): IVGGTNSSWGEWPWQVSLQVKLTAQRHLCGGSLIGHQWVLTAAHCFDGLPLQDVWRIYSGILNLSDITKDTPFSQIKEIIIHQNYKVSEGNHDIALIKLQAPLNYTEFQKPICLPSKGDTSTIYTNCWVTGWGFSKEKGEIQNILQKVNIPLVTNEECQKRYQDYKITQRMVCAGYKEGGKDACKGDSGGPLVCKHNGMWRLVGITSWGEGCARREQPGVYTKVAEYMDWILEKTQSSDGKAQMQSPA
Sequence of Human PKK (P03952 20-390 partner): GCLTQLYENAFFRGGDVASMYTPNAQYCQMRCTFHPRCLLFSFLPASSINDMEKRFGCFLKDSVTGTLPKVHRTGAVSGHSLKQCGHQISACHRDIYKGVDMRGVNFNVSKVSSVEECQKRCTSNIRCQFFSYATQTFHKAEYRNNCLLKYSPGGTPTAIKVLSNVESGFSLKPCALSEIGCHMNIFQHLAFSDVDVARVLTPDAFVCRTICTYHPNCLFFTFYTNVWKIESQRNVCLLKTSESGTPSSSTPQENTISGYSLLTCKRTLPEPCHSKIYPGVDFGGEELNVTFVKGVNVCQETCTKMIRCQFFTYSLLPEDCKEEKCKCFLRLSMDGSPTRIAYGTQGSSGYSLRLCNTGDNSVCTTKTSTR

The target in this test is Human PKK (Homo sapiens (Human), UniProt P03952). Put plainly: Inhibition of PKK, endpoint assay (human PKK). The settings on record: substrate H-Pro-Phe-Arg-AMC, 1 h room temperature. The test is classed as biochemical. The procedure:
Subsequently, PPACK II (Calbiochem) was added as a stop solution to achieve a final concentration of 1 μM and fluorescence was measured using an Envision Reader (PerkinElmer) with the wavelength excitation setting of 355 nm and the wavelength emission setting of 460 nm.
`Cc1nc(N2CC(C(C)C)C2)ccc1Cn1cc(C(=O)N[C@@H]2CCc3c2n[nH]c3C)cn1` [Example 70, N-[(6R)-3-Methyl-2H,4H,5H,6H-cyclopenta[c]pyrazol-6-yl]-1-({2-methyl-6-[3-(propan-2-yl)azetidin-1-yl]pyridin-3-yl}lmethyl)-1H-pyrazole-4-carboxamide] gave an IC50 of 13 nM.
Regarding `COCc1nn(Cc2cnc(N3CC4C(C3)C4(F)F)nc2C)cc1C(=O)N[C@@H]1CCc2c(C)n[nH]c21` (stereo partly drawn) [Example 26, 1-[(2-{6,6-Difluoro-3-azabicyclo[3.1.0]hexan-3-yl}-4-methylpyrimidin-5-yl)methyl]-3-(methoxy-methyl)-N-[(6R)-3-methyl-1H,4H,5H,6H-cyclo-penta[c]pyrazol-6-yl]-1H-pyrazole-4-carboxamide], the IC50 was determined as 3 nM.
The same measure for `Cc1nc(N2CCC3(C2)CC3(F)F)ccc1Cn1cc(C(=O)N[C@@H]2CCc3c2n[nH]c3C)cn1` (stereo partly drawn) [Example 78, 1-[(6-{1,1-Difluoro-5-azaspiro[2.4]heptan-5-yl}-2-methylpyridin-3-yl)methyl]-N-[(6R)-3-methyl-2H,4H,5H,6H-cyclopenta[c]pyrazol-6-yl]-1H-pyrazole-4-carboxamide]: 9 nM.
`COCc1nn(Cc2cnc(N3CC4(CC4)C3)nc2C)cc1C(=O)N[C@@H]1CCc2c(C)n[nH]c21` [Example 31, 1-[(2-{5-Azaspiro[2.3]hexan-5-yl}-4-methyl-pyrimidin-5-yl)methyl]-3-(methoxymethyl)-N-[(6R)-3-methyl-1H,4H,5H,6H-cyclopenta[c]pyrazol-6-yl]-1H-pyrazole-4-carboxamide]: the IC50 worked out at 10 nM. This IC50 and that of the molecule before are within 1.5-fold of each other.
The value for `Cc1nc(N2CC(C)C2)ccc1Cn1cc(C(=O)N[C@@H]2CCc3c2n[nH]c3C)cn1` [Example 61, N-[(6R)-3-Methyl-2H,4H,5H,6H-cyclopenta[c]pyrazol-6-yl]-1-{[2-methyl-6-(3-methylazetidin-1-yl)pyridin-3-yl]methyl}-1H-pyrazole-4-carboxamide] was 5 nM; that for `Cc1nc(N2CC3CC(C2)C3O)ccc1Cn1cc(C(=O)N[C@@H]2CCc3c2n[nH]c3C)cn1` (stereo partly drawn) [Example 39, 1-[(6-{6-Hydroxy-3-azabicyclo[3.1.1]heptan-3-yl]-2-methylpyridin-3-yl)methyl]-N-[(6R)-3-methyl-2H,4H,5H,6H-cyclopenta[c]pyrazol-6-yl]-1H-pyrazole-4-carboxamide] was 9 nM.
`Cc1nc(N2CC(C(F)(F)F)C2)ccc1Cn1cc(C(=O)N[C@@H]2CCc3c2n[nH]c3C)cn1` [Example 69, N-[(6R)-3-Methyl-2H,4H,5H,6H-cyclopenta[c]pyrazol-6-yl]-1-({2-methyl-6-[3-(trifluoromethyl)azetidin-1-yl]pyridin-3-yl}methyl)-1H-pyrazole-4-carboxamide] had an IC50 of 17 nM.
The molecule `Cc1nc(N2CCC(C(F)(F)F)C2)ccc1Cn1cc(C(=O)N[C@@H]2CCc3c2n[nH]c3C)cn1` (stereo partly drawn) [Example 60, N-[(6R)-3-Methyl-2H,4H,5H,6H-cyclopenta[c]pyrazol-6-yl]-1-({2-methyl-6-[3-(trifluoromethyl)pyrrolidin-1-yl]pyridin-3-yl}methyl)-1H-pyrazole-4-carboxamide] showed an IC50 of 7 nM.
Turning to `COCc1nn(Cc2cnc(N3CC4CC4C3)nc2C)cc1C(=O)N[C@@H]1CCc2c(C)n[nH]c21` (stereo partly drawn) [Example 28, 1-[(2-{3-Azabicyclo[3.1.0]hexan-3-yl}-4-methyl-pyrimidin-5-yl)methyl]-3-(methoxymethyl)-N-[(6R)-3-methyl-1H,4H,5H,6H-cyclopenta[c]pyrazol-6-yl]-1H-pyrazole-4-carboxamide], inhibition was half-maximal at 4 nM (IC50).
The value for `Cc1nc(N2CC(C#N)C2)ccc1Cn1cc(C(=O)N[C@@H]2CCc3c2n[nH]c3C)cn1` [Example 57, 1-{[6-(3-Cyanoazetidin-1-yl)-2-methylpyridin-3-yl]methyl}-N-[(6R)-3-methyl-2H,4H,5H,6H-cyclopenta[c]pyrazol-6-yl]-1H-pyrazole-4-carboxamide] was 37 nM; that for `Cc1nc(N2C[C@@H]3[C@@H](O)[C@@H]3C2)ccc1Cn1cc(C(=O)N[C@@H]2CCc3c2n[nH]c3C)cn1` [Example 59, 1-({6-[(1R,5S,6R)-6-Hydroxy-3-azabicyclo[3.1.0]hexan-3-yl]-2-methylpyridin-3-yl}methyl)-N-[(6R)-3-methyl-2H,4H,5H,6H-cyclopenta[c]pyrazol-6-yl]-1H-pyrazole-4-carboxamide] was 17 nM.
On to `Cc1nc(N2CCC3(CCOC3)C2)ccc1Cn1cc(C(=O)N[C@@H]2CCc3c2n[nH]c3C)cn1` (stereo partly drawn) [Example 73, N-[(6R)-3-Methyl-2H,4H,5H,6H-cyclopenta[c]pyrazol-6-yl]-1-[(2-methyl-6-{2-oxa-7-azaspiro[4.4]nonan-7-yl}pyridin-3-yl)methyl]-1H-pyrazole-4-carboxamide], for which the IC50 is 17 nM.
Consider `Cc1nc(N2C[C@@H]3[C@@H](CF)[C@@H]3C2)ccc1Cn1cc(C(=O)N[C@@H]2CCc3c2n[nH]c3C)cn1` [Example 95, 1-({6-[(1R,5S,6R)-6-(Fluoromethyl)-3-azabicyclo[3.1.0]hexan-3-yl]-2-methylpyridin-3-yl}methyl)-N-[(6R)-3-methyl-2H,4H,5H,6H-cyclopenta[c]pyrazol-6-yl]-1H-pyrazole-4-carboxamide], for which half-maximal inhibition (IC50) required 4 nM.
In turn, `Cc1nc(N2CC3C(C2)C3(F)F)ccc1Cn1cc(C(=O)N[C@@H]2CCc3c(C)n[nH]c32)c(C)n1` (stereo partly drawn) [Example 18, 1-[(6-{6,6-Difluoro-3-azabicyclo[3.1.0]hexan-3-yl}-2-methylpyridin-3-yl)methyl]-3-methyl-3-methyl-N-[(6R)-3-methyl-1H,4H,5H,6H-cyclopenta[c]pyrazol-6-yl]-1H-pyrazole-4-carboxamide] registered an IC50 of 0.9 nM.
In the case of `Cc1nc(N2CC[C@](C)(O)C2)ccc1Cn1cc(C(=O)N[C@@H]2CCc3c2n[nH]c3C)cn1` [Example 83, 1-({6-[(3S)-3-Hydroxy-3-methylpyrrolidin-1-yl]-2-methylpyridin-3-yl}methyl)-N-[(6R)-3-methyl-2H,4H,5H,6H-cyclopenta[c]pyrazol-6-yl]-1H-pyrazole-4-carboxamide], the IC50 was found to be 41 nM.
`Cc1nc(N2C[C@@H]3[C@@H](CO)[C@@H]3C2)ccc1Cn1cc(C(=O)N[C@@H]2CCc3c2n[nH]c3C)cn1` [Example 38, 1-({6-[(1R,5S,6R)-6-(Hydroxymethyl)-3-azabicyclo[3.1.0]hexan-3-yl]-2-methylpyridin-3-yl}methyl)-N-[(6R)-3-methyl-2H,4H,5H,6H-cyclopenta[c]pyrazol-6-yl]-1H-pyrazole-4-carboxamide] had an IC50 of 26 nM.
With `Cc1nc(N2CC3C(C2)C3(F)F)ncc1Cn1cc(C(=O)N[C@@H]2CCc3c2n[nH]c3C)cn1` (stereo partly drawn) [Example 84, 1-[(2-{6,6-Difluoro-3-azabicyclo[3.1.0]hexan-3-yl}-4-methylpyrimidin-5-yl)methyl]-N-[(6R)-3-methyl-2H,4H,5H,6H-cyclopenta[c]pyrazol-6-yl]-1H-pyrazole-4-carboxamide, TFA salt], 2 nM corresponded to half-maximal inhibition (IC50).
In the case of `Cc1nc(N2CC3CCCC3C2)ccc1Cn1cc(C(=O)N[C@@H]2CCc3c2n[nH]c3C)cn1` (stereo partly drawn) [Example 62, N-[(6R)-3-Methyl-2H,4H,5H,6H-cyclopenta[c]pyrazol-6-yl]-1-[(2-methyl-6-{octahydrocyclopenta[c]pyrrol-2-yl}pyridin-3-yl)methyl]-1H-pyrazole-4-carboxamide], the IC50 came to 7 nM. This IC50 is about 3.5-fold higher than that of the molecule before.
The value for `Cc1nc(N2CC3C(C2)C3(F)F)ncc1Cn1cc(C(=O)N[C@@H]2CCc3c(C)n[nH]c32)nn1` (stereo partly drawn) [Example 85, 1-[(2-{6,6-Difluoro-3-azabicyclo[3.1.0]hexan-3-yl}-4-methylpyrimidin-5-yl)methyl]-N-[(6R)-3-methyl-1H,4H,5H,6H-cyclopenta[c]pyrazol-6-yl]-1H-1,2,3-triazole-4-carboxamide] was 4 nM; that for `Cc1nc(N2CC3CCC3C2)ccc1Cn1cc(C(=O)N[C@@H]2CCc3c2n[nH]c3C)cn1` (stereo partly drawn) [Example 68, 1-[(6-{3-Azabicyclo[3.2.0]heptan-3-yl}-2-methylpyridin-3-yl)methyl]-N-[(6R)-3-methyl-2H,4H,5H,6H-cyclopenta[c]pyrazol-6-yl]-1H-pyrazole-4-carboxamide] was 4 nM; that for `Cc1nc(N2C[C@@H]3CNC(=O)[C@@H]3C2)ccc1Cn1cc(C(=O)N[C@@H]2CCc3c2n[nH]c3C)cn1` [Example 50, 1-({6-[(3aS,6aS)-4-Oxo-octahydropyrrolo[3,4-c]pyrrol-2-yl]-2-methylpyridin-3-yl}methyl)-N-[(6R)-3-methyl-2H,4H,5H,6H-cyclopenta[c]pyrazol-6-yl]-1H-pyrazole-4-carboxamide] was 8 nM.
Turning to `COC1(C)CN(c2ccc(Cn3cc(C(=O)N[C@@H]4CCc5c4n[nH]c5C)cn3)c(C)n2)C1` [Example 44, 1-{[6-(3-Methoxy-3-methylazetidin-1-yl)-2-methylpyridin-3-yl]methyl}-N-[(6R)-3-methyl-2H,4H,5H,6H-cyclopenta[c]pyrazol-6-yl]-1H-pyrazole-4-carboxamide], the IC50 was found to be 20 nM. Compared with the last molecule, the IC50 is about 2.5-fold higher.
As to `Cc1nc(N2CC(C)(C#N)C2)ccc1Cn1cc(C(=O)N[C@@H]2CCc3c2n[nH]c3C)cn1` [Example 41, 1-{[6-(3-Cyano-3-methylazetidin-1-yl)-2-methylpyridin-3-yl]methyl}-N-[(6R)-3-methyl-2H,4H,5H,6H-cyclopenta[c]pyrazol-6-yl]-1H-pyrazole-4-carboxamide], it took 13 nM to reach half-maximal inhibition (IC50).
The value for `Cc1nc(N2CC3COCC(C3)C2)ccc1Cn1cc(C(=O)N[C@@H]2CCc3c2n[nH]c3C)cn1` [Example 43, N-[(6R)-3-Methyl-2H,4H,5H,6H-cyclopenta[c]pyrazol-6-yl]-1-[(2-methyl-6-{3-oxa-7-azabicyclo[3.3.1]nonan-7-yl]pyridin-3-yl)methyl]-1H-pyrazole-4-carboxamide] was 23 nM; that for `Cc1nc(N2CC3(CCOCC3)C2)ccc1Cn1cc(C(=O)N[C@@H]2CCc3c2n[nH]c3C)cn1` [Example 63, N-[(6R)-3-Methyl-2H,4H,5H,6H-cyclopenta[c]pyrazol-6-yl]-1-[(2-methyl-6-{7-oxa-2-azaspiro[3.5]nonan-2-yl]pyridin-3-yl)methyl]-1H-pyrazole-4-carboxamide] was 85 nM.
